Data from PMC6941357, “An in vitro toolbox to accelerate anti-malarial drug discovery and development” (Malaria Journal, 2020).
Converted amounts (≈) assume the structure as drawn. “And” between values parts separate entries of the source, which are not always exact repeats. Equal values may be shown once. Read-outs that look alike come from different tables or passages of the source. Marks after values point to notes of the source that are not given here.

How the values were obtained:
[1] = Solubility in biorelevant media; conditions: for Solubility FaSSGF (1 h) / Solubility FaSSIF-V2 (5–6 h) / Solubility FeSSIF-V2 (5–6 h) / Solubility PBS7.4 (5–6 h) / solubility at 1 h: 37 °C; for solubility at 1 h: fassgf or other biorelevant; for solubility at 1 h / solubility: thermodynamic from solid
Description: Solubility of each active pharmaceutical ingredient was evaluated at 37 °C in pH 7.4 phosphate buffered saline (prepared as described for the partitioning experiments), fasted (FaSSIF-V2) and fed (FeSSIF-V2) state simulated intestinal fluids and fasted state simulated gastric fluid (FaSSGF) as described by Jantratid et al.. […] Samples were vortexed and placed in a 37 °C incubator on an orbital mixer (IKA® VXR basic Vibrax® orbital mixer) set at 600 rpm. Sampling times were 1 h for FaSSGF or 5–6 h for FaSSIF-V2, FeSSIF-V2, and PBS. These times were used to reflect the maximal likely residence times within the stomach and small intestine, respectively. Sampling was carried out by centrifuging each sample at 10,000 rpm for 3 min, transferring 300 µL aliquots into fresh Eppendorf tubes and centrifuging these tubes again at 10,000 rpm for 3 min. Triplicate aliquots of the supernatant were then removed and diluted 1:2 in 50% aqueous methanol and then again in 50% aqueous acetonitrile to be within the analytical concentration range. Samples were analysed by LC–MS along with calibration standards (Additional file 1: Table S2).

human liver microsomes = assay: in vitro; conditions: for HLM CLint: microsomes
Summary of the method: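 Compound depletion in human liver microsomes was followed by LC–MS at 2–60 min, with cofactor-free controls. First-order depletion rate constants gave in vitro CLint (µL/min/mg protein), corrected to unbound CLint using measured microsomal fu.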

CYP1A2 = target: T1, CYP1A2 (Homo sapiens, UniProt P05177); assay: in vitro
T1 sequence (P05177 1-516): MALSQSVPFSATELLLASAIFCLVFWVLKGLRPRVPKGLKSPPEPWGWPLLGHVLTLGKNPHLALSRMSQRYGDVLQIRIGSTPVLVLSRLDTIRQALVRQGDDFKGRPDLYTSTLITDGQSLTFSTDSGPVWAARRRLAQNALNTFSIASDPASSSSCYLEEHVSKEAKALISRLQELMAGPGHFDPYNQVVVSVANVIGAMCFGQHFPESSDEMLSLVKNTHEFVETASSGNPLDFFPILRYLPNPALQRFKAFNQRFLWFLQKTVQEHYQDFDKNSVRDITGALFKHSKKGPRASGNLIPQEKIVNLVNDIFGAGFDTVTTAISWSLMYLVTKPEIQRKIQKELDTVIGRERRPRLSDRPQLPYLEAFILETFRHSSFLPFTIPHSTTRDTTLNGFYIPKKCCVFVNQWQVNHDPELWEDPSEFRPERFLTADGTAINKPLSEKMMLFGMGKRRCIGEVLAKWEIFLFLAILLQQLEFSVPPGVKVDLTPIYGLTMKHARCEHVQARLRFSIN
Summary of the method: (§1)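 Substrate-specific interaction method in human liver microsomes: the test compound's effect on production of a single isoform-dependent metabolite, quantified by LC–MS using diazepam as internal standard, is reported as percent inhibition of enzyme activity. Substrate Km was determined under the same incubation conditions.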

CYP2C19 = CYP2C19 (Homo sapiens, UniProt P33261); assay: in vitro
Sequence of CYP2C19 (P33261 whole entry): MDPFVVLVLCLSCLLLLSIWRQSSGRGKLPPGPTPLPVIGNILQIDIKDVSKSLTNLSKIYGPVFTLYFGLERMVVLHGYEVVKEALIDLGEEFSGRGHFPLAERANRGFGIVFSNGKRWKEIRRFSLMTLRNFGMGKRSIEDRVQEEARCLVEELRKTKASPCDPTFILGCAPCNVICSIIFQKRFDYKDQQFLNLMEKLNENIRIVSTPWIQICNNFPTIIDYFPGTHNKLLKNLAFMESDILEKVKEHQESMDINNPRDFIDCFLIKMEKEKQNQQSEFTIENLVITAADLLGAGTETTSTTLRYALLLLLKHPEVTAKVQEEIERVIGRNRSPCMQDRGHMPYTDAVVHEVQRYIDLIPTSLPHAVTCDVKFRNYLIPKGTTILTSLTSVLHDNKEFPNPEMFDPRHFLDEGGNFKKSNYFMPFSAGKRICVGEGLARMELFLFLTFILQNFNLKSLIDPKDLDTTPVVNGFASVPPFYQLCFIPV
Summary of the method: as §1

CYP2C9 = CYP2C9 (Homo sapiens, UniProt P11712); assay: in vitro
Sequence of CYP2C9 (P11712 whole entry): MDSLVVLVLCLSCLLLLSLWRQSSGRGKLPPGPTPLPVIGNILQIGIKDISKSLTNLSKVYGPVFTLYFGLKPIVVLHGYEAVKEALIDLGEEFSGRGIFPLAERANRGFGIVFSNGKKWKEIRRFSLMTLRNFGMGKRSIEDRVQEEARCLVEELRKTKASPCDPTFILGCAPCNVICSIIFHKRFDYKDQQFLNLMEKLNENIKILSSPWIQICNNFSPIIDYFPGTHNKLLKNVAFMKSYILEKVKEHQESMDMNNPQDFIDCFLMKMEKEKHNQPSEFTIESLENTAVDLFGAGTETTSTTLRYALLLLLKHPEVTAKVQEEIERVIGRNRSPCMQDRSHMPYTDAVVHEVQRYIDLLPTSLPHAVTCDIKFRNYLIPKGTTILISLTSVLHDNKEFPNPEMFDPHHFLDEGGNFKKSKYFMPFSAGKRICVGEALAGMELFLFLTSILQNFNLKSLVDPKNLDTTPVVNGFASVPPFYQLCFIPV
Summary of the method: as §1

[2] = Ionization constants by potentiometric titration; assay type: physicochemical; conditions: basic pKa (B), mean ± SD, n = 3 titrations; for pKa: aqueous solution (DMSO stock diluted 1:10 with water), read-out: Measured pKa
Description: The autotitrator was controlled by Tiamo software (Version 1.3). pH measurements were conducted using a Metrohm LL Micro glass electrode which was calibrated on the day of use with calibration standards at pH 2, 4, 7 and 10. All reagents were standardized (directly or indirectly) against potassium hydrogen phthalate (Sigma-Aldrich, A.C.S. Acidimetric Standard). Titrant solutions were protected from carbon dioxide absorption by flushing with nitrogen before sealing or by the incorporation of a drying tube filled with self-indicating soda lime into the titration reaction vessel set-up.
Aliquots were introduced directly into the titration vessel and diluted 1:10 with water (typical final compound concentration of 0.5 mM).

[3] = Solubility limited absorbable dose (SLAD) calculation with predicted human jejunal Peff; conditions: for solubility: FaSSIF; for An (absorption number): Peff × tres/R, minimum 1; for Permeability classification: based on ref 80 and control compounds; for Predicted human Peff: from Caco-2 Papp via calibration plot; for Ssi (estimated solubility in the small intestine): based on measured FaSSIF solubility
Text: Predicted Peff values were obtained from a calibration plot of literature Peff values vs measured Caco-2 Papp using either buffer or plasma as the transport medium (see Results section).

[4] = phosphate buffered saline pH 7.4, 37 °C, pH 7.4, aqueous buffer
[5] = human liver microsomes, at max conc, nmi = no measurable inhibition

| Structure (SMILES) | Solubility FaSSGF (1 h) [1] | Solubility FaSSIF-V2 (5–6 h) [1] | Solubility FeSSIF-V2 (5–6 h) [1] | Solubility PBS7.4 (5–6 h) [1] | HLM CLint (human liver microsomes; human) | IC50 (CYP1A2; microsomes) [µM] | IC50 (CYP2C19; microsomes) [µM] | CYP2C9 % inhibition at max conc (CYP2C9; microsomes) | IC50 (CYP2C9; microsomes) [µM] | solubility at 1 h ([1]; FaSSGF) | solubility ([1]; FaSSIF-V2, 37 °C, fassif) | solubility ([1]; FeSSIF-V2, 37 °C, fessif) | solubility [1, 4] | An (absorption number) [3] | SLAD ([3]; Ssi × V (500 mL) × Mp) [mg] | Permeability classification [3] | Predicted human Peff [3] | Ssi (estimated solubility in the small intestine) [3] [µg/mL] | Unbound CLint (human liver microsomes) | CYP1A2 % inhibition at max conc (CYP1A2; microsomes) | also measured |
| --- | --- | --- | --- | --- | --- | --- | --- | --- | --- | --- | --- | --- | --- | --- | --- | --- | --- | --- | --- | --- | --- |
| COc1cc(N[C@H](C)CCCN)c2nccc(C)c2c1Oc1ccc(Cl)c(Cl)c1 [NPC1161B] | 1520 µg/mL and 3500 µM | 19.9 µg/mL and 45.8 µM | > 2000 µg/mL and > 4600 µM | 5.44 µg/mL and 12.5 µM | < 7^b µL/min/mg | 6.5 | 9.6 | 37% | > 20 | – | – | – | – | – | – | – | – | – | – | – | Ki (CYP1A2; microsomes): 3.8 µM; Ki (CYP2C19; microsomes): 5.7 µM |
| C[C@H]1[C@H](N2CCS(=O)(=O)CC2)O[C@@H]2O[C@@]3(C)CC[C@H]4[C@H](C)CC[C@@H]1[C@@]24OO3 [Artemisone] | – | – | – | – | – | – | – | – | – | 89.1 µg/mL and 222 µM | 115 µg/mL and 286 µM | 278 µg/mL and 692 µM | 86.1 µg/mL and 214 µM | 6.0 | 345 | High (> 85% absorption (high)) | 5.0 10^−4 cm/s | – | – | – | Measured pKa [2]: no ionizations could be detected; solubility [3]: 115 µg/mL (≈ 286 µM) |
| CC(C)(C)NCc1cc(Nc2ccnc3cc(Cl)ccc23)c2c(c1O)CCCC2 [Naphthoquine] | > 2000 µg/mL and > 4880 µM | 410 µg/mL and 1000 µM | 941 µg/mL and 2300 µM | 28.5 µg/mL and 69.5 µM | 14.4 µL/min/mg | > 20 | > 20 | nmi | > 20 | – | – | – | – | 11 | – | High (> 85% absorption (high)) | 9.2 10^−4 cm/s | 410 | 68.6 µL/min/mg | 33% | SLAD [3]: 2250 mg; CYP2C19 % inhibition at max conc (CYP2C19; microsomes): nmi |
| CCCCN(CCCC)CCC(O)c1cc2c(Cl)cc(Cl)cc2c2cc(C(F)(F)F)ccc12 (stereo not shown) [Halofantrine] | – | – | – | – | – | – | – | – | – | 12.7 µg/mL and 25.4 µM | 69.9 µg/mL and 140 µM | 739 µg/mL and 1480 µM | < 0.05 µg/mL and < 0.1 µM | 13 | 466 | High (> 85% absorption (high)) | 11 10^−4 cm/s | – | – | – | solubility [3]: 69.9 µg/mL (≈ 140 µM); Unbound CLint (human liver microsomes; human, 1 µM, pH 7.4): 13,500 µL/min/mg; IC50 (CYP1A2): > 20 µM; CYP1A2 % inhibition at max conc (CYP1A2; [5]): nmi; IC50 (CYP2C19): > 20 µM; CYP2C19 % inhibition at max conc (CYP2C19; [5]): nmi; IC50 (CYP2C9): > 20 µM; CYP2C9 % inhibition at max conc (CYP2C9; [5]): nmi |
| Cc1nc(Nc2ncc(N3CCN(C)[C@H](C)C3)c(Nc3cc(C)n(C)n3)n2)cc(C2CC2)c1F [MMV253] | – | – | – | – | – | – | – | nmi | – | > 2000 µg/mL and > 4300 µM | 569 µg/mL and 1220 µM | > 2000 µg/mL and > 4300 µM | 19 µg/mL and 40.8 µM | 8.1 | 2300 | High (> 85% absorption (high)) | 6.8 10^−4 cm/s | – | – | nmi | pKa [2]: 8 ± 0.03; solubility [3]: 569 µg/mL (≈ 1220 µM); IC50 (CYP1A2): > 20 µM; IC50 (CYP2C9): > 20 µM |
| O=C(NCCN1CCCC1)c1cc(-c2ccc(CN3CCOCC3)cc2)nc2ccc(F)cc12 [M5717] | – | – | – | – | 11.1 µL/min/mg | > 20 | > 20 | nmi | > 20 | – | – | – | – | 4.0 | – | High (> 85% absorption (high)) | 3.4 10^−4 cm/s | > 3000 | 22.2 µL/min/mg | nmi | solubility in all media tested ([1]; FaSSGF, FaSSIF-V2, FeSSIF-V2, PBS pH 7.4): > 2000 µg/mL; SLAD [3]: > 6050 mg; CYP2C19 % inhibition at max conc (CYP2C19; microsomes): nmi |
| CS(=O)(=O)O.FC1CCN(CCOc2ccc(C3CCC4(CC3)OOC3(OO4)C4CC5CC(C4)CC3C5)cc2)CC1 (stereo not shown) [TDD-E209] | 211 µg/mL and 421 µM | 87.2 µg/mL and 174 µM | > 2000 µg/mL and > 4000 µM | 0.056 µg/mL and 0.112 µM | – | – | – | – | – | – | – | – | – | 13 | – | High (> 85% absorption (high)) | 11 10^−4 cm/s | 87.0 | 85,000 µL/min/mg | – | SLAD [3]: 579 mg |
| CN(C)C[c-]1cccc1CNc1ccnc2cc(Cl)ccc12.[Fe+2].c1cc[cH-]c1 (stereo not shown) [Ferroquine] | > 2000 µg/mL and > 4600 µM | 320 µg/mL and 738 µM | > 2000 µg/mL and > 4600 µM | 4.9 µg/mL and 11 µM | 29.2 µL/min/mg | > 20 | > 20 | nmi | > 20 | – | – | – | – | 2.7 | 426 | High (> 85% absorption (high)) | 2.2 10^−4 cm/s | 320 | 108 µL/min/mg | nmi | CYP2C19 % inhibition at max conc (CYP2C19; microsomes): nmi |
| COc1cc2[nH]c(C)c(-c3ccc(Oc4ccc(OC(F)(F)F)cc4)cc3)c(=O)c2cc1Cl [ELQ300] | 0.929 µg/mL and 1.95 µM | 0.524 µg/mL and 1.10 µM | 0.065 µg/mL and 0.137 µM | 0.102 µg/mL and 0.214 µM | < 7^b µL/min/mg | > 20 | > 20 | – | 7.5 | – | – | – | – | 13 | – | High (> 85% absorption (high)) | 11 10^−4 cm/s | 0.520 | < 3500^c µL/min/mg | nmi | SLAD [3]: 3 mg; CYP2C19 % inhibition at max conc (CYP2C19; microsomes): 41%; Ki (CYP2C9; microsomes): 5.4 µM |
| Cc1cc(Nc2ccc(S(F)(F)(F)(F)F)cc2)n2nc(C(C)(F)F)nc2n1 [DSM265] | – | – | – | – | – | – | – | – | – | – | – | – | 2.04 µg/mL and 4.9 µM | 5.7 | 14 | High (> 85% absorption (high)) | 4.8 10^−4 cm/s | – | – | – | Measured pKa [2]: no ionizations could be detected |
| CC1(C)c2nc(-c3ccc(F)cc3)c(Nc3ccc(F)cc3)n2CCN1C(=O)CN [KAF156] | – | – | – | – | – | – | – | – | – | > 2000 µg/mL and > 4850 µM | 1600 µg/mL and 3880 µM | > 2000 µg/mL and > 4850 µM | 560 µg/mL and 1360 µM | 3.5 | 2780 | High (> 85% absorption (high)) | 2.9 10^−4 cm/s | – | – | nmi | pKa [2]: 8.4 ± 0.06; solubility ([1]; FaSSGF, FaSSIF-V2, FeSSIF-V2 and PBS pH 7.4, 37 °C, pH 7.4, aqueous buffer): 400 to 500 µg/mL (≈ 972 to 1220 µM); solubility [3]: 1600 µg/mL (≈ 3890 µM); inhibition at 20 µM (CYP2C19; human, microsomes, pH 7.4): 40% |
